According to US12516364B2, “Device for testing bacterium, and method for testing bacterium” (Hitachi High-Tech Corporation, priority 2018, dated 2026):

Test system: Escherichia coli
Experiment: antibacterial susceptibility determination from microscopic images (luminance value and area of bacteria)
Format: cell-based
Conditions: ampicillin 2 μg/mL; 0 to 360 minutes; with or without minimum filter; growth has not occurred over the entire image
Method: The test plate 102 has a plurality of wells, and each well holds a medium component that facilitate the growth of bacteria and an antibacterial drug to be tested. After a bacterial solution containing the bacteria to be tested is dispensed to each well, the test plate 102 is introduced into the bacteria test apparatus 100. The bacteria test apparatus 100 is adjusted to a temperature, such as 37° C., at which the bacteria can grow.
The illuminator 101 illuminates the test plate 102 with light. As the illuminator 101, a light source of white light such as a lamp or a light source of light in a specific wavelength range such as an LED may be used. Light passing through each well of the test plate 102 is condensed by the objective lens 103 and measured as an image by the imager 104. […] Further, images of a plurality of points in each well may be captured, or alternatively, a plurality of images of the inside of the culture solution away from the bottom surface of each well of the test plate 102 may be measured. […]
The determiner 1055 acquires the new feature from the arithmetic unit 1051 and outputs the determination result for each well. […] The mean of luminance values is calculated from the image captured at the preset determination time, and a difference from the mean of luminance values at an initial culture stage is calculated. […]

SMILES: CC1(C)S[C@@H]2[C@H](NC(=O)[C@H](N)c3ccccc3)C(=O)N2[C@H]1C(=O)O [ampicillin]
- time variation in mode of luminance values: does not vary
